According to patent US5585504A, “Process of making cox-2 inhibitors having a lactone bridge” (Merck & Co., Inc., priority 1994, dated 1996):
Like-named read-outs stand apart in the source and are kept apart here.

Tested on: carrageenan-induced paw edema
Assay: Rat paw edema assay (carrageenan)
Assay type: in vivo, Male Sprague-Dawley rats
Conditions: po, 1 hr before carrageenan, paw volume 3 hr after
Method: Male Sprague-Dawley rats (150-200g) were fasted overnight and were given po either vehicle (5% tween 80 or 1% methocel) or a test compound at 9-10 am. One hr later, a line was drawn using a permanent marker at the level above the ankle in one hind paw to define the area of the paw to be monitored. The paw volume (VOh) was measured using a plethysmometer (Ugo-Basile,Italy) based on the principle of water displacement. The animals were then injected subplantarly with 50 ul of a 1% carrageenan solution in saline (FMC Corp, Maine) into the paw using an insulin syringe with a 25-gauge needle (i.e. 500 ug carrageenan per paw). Three hr later, the paw volume (V3h) was measured and the increases in paw volume (V3h -VOh) were calculated. The animals were euthanized by CO2 aphyxiation and the absence or presence of stomach lesions scored. Stomach scores were expressed as the sum of total lesions in mm. Paw edema data were compared with the vehicle-control group and percent inhibition calculated taking the values in the control group as 100%. […] All treatment groups were coded to eliminate observer bias.

COc1ccc2c(c1)c(CC(=O)O)c(C)n2C(=O)c1ccc(Cl)cc1 [Indomethacin, reference compound]
ED30 (read-out: ED30): 1 mg/kg

CS(=O)(=O)c1ccc(C2=C(c3ccc(Cl)c(Cl)c3)C(=O)OC2)cc1
ED30 (Table I, column head not given): 0.23 mg/kg

CS(=O)(=O)c1ccc(C2=C(c3ccc(F)c(Br)c3)C(=O)OC2)cc1
ED30 (Rattus norvegicus, 3 h, read-out: ED30 (Table I, column head not given)): ~1 mg/kg
